Measurements from PMC2830424, “The Anopheles gambiae Odorant Binding Protein 1 (AgamOBP1) Mediates Indole Recognition in the Antennae of Female Mosquitoes” (PLoS ONE, 2010).

Assays:
[1] = target: T1, AgamOBP1 (Odorant Binding Protein 1) (Anopheles gambiae, UniProt Q8T6S0); test: fluorescent reporter dye of the displacement assay (no Kd reported); design: gene OBP-1; recombinant OBP1 (r-OBP1)
T1 sequence (Q8T6S0 20-144): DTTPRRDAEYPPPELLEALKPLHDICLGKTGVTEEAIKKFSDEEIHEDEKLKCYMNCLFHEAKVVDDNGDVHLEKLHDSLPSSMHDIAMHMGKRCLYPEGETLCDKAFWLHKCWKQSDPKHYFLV

[2] = target: T1, AgamOBP1 (Odorant Binding Protein 1); test: fluorescence displacement of 1-NPN (screening assay); design: gene OBP-1; recombinant OBP1 (r-OBP1)
Source text: fluorescence displacement of 1-NPN (screening assay) on AgamOBP1 (Odorant Binding Protein 1) | 3-methyl indole (skatole) […] also bound to r-OBP1 but with an apparently lower affinity

[3] = target: T1, AgamOBP1 (Odorant Binding Protein 1); test: 3H-indole scintillation proximity (Ni-NTA FlashPlate) binding; confirmed by 1-NPN fluorescence displacement; design: gene OBP-1; purified 6xHis tagged r-OBP1
Source text: 3H-indole scintillation proximity (Ni-NTA FlashPlate) binding; confirmed by 1-NPN fluorescence displacement on AgamOBP1 (Odorant Binding Protein 1) | Binding curve of ^3H indole to r-OBP1 in Ni-NTA FlashPlates.

SMILES: c1ccc(Nc2cccc3ccccc23)cc1 [1-NPN, N-Phenyl-1-Naphthylamine]
- fluorescent reporter dye displacement [1]: increasing concentrations of indole displaced more 1-NPN dye from the AgamOBP1 binding pocket

SMILES: Cc1c[nH]c2ccccc12 [3-methyl indole]
- fluorescence displacement of 1-NPN (screening assay) [2]: 3-methyl indole (skatole) [...] also bound to r-OBP1 but with an apparently lower affinity

SMILES: c1ccc2[nH]ccc2c1 [indole]
- Kd [3]: 2300 nM
